Assay results reported in publication PMC12040169 (PLOS Biology, 2025).

Test: in vitro
Conditions: human, hela cells, % viability

Row | Structure (SMILES) | viability at 28.5 h, 10 µM [%]
1 | Cn1cc(CN2C[C@H]3CN(C(=O)C4CCC4)C[C@@]3(C(=O)O)C2)cc1C#N [CBK307105] | 101
2 | CO[C@H]1CN(C)C[C@@H]1NC(=O)c1cccc2c1NCCC2 [CBK307107] | 106
3 | CC(C)Cn1c(=O)c2c(nc3n2CCS3)n(C)c1=O [CBK307109] | 98.1
4 | CCOc1ccc(Cl)cc1CN(C)C(=O)NC(c1ncnn1C)C(C)C (stereo not drawn) [CBK307110] | 80.5
5 | CCOc1ccc(Cl)cc1CN(C)C(=O)NCc1nccn1C(C)C [CBK307111] | 101
6 | CCO[C@H]1COC[C@@H]1NC(=O)c1cccc2c1NCCC2 [CBK307113] | 94.9
7 | CC(C)(C)C1CCc2c(sc(NC(=O)c3cccs3)c2C(N)=O)C1 (stereo not drawn) [CBK307114] | 85.4
8 | CC(C)N1CCCC2(CCN(C(=O)Cc3c[nH]c(=O)n(C)c3=O)C2)C1=O (stereo not drawn) [CBK307115] | 87.8
9 | O=C(NCCCN1CCCC(O)C1)N1CCCN(Cc2cccs2)CC1 (stereo not drawn) [CBK307116] | 82
10 | CC(O)CNC(=O)c1cn2cc(-c3cccs3)n(CC3CC3)c(=O)c2n1 (stereo not drawn) [CBK307117] | 81.3
11 | Cc1cnc(C)c(N2CCN(c3cc([C@H]4C[C@@H](N)C4)ncn3)CC2)n1 [CBK307118] | 88.7
12 | CN1CCOCC(CNC(=O)c2ccc(-c3cnc(N)nc3)cc2)C1 (stereo not drawn) [CBK307119] | 100
13 | Cc1nnc(CCn2cnc3cccnc3c2=O)s1 [CBK307125] | 96.7
14 | COc1coc(CN2C(=O)COc3cccnc32)cc1=O [CBK307126] | 96.7
15 | CCCc1cn(C2CCN(c3cc(-n4cc(C)cn4)ncn3)CC2)nn1 [CBK307127] | 104
16 | O=C(NCCn1cccn1)N1CCCN(Cc2ccncc2)CC1 [CBK307129] | 90.1
17 | COCCn1c(CO)nnc1[C@H]1C[C@@H](NC(=O)c2ccc(O)c(F)c2)C1 [CBK307132] | 74.1
18 | CCn1c(C)nnc1SCCNC(=O)c1cnc(N(C)C)nc1C [CBK307135] | 93
19 | CSCCCN1CCn2nc(CNc3cnccn3)cc2C1 [CBK307136] | 92.5
20 | COc1ccc(Cc2nc(CC3CCCOC3)n(CC(F)(F)F)n2)cc1 (stereo not drawn) [CBK307140] | 112
21 | CCOC(=O)c1cn(CC)c2cc(N3CCN(C)CC3)c(F)cc2c1=O [CBK307141] | 92.9

Row | Structure (SMILES) | viability at 28.5 h, 10 µM [%]
22 | CCOC(=O)c1cn(CC)c2cc(N3CCOCC3)c(F)cc2c1=O [CBK307142] | 95.7
23 | Cc1cccn2c(CN3CCCOCC3)c(C(=O)N3CCOCC3)nc12 [CBK307144] | 111
24 | CCn1cc(C(=O)NN)c(=O)c2cc(F)c(N3CCCCCC3)cc21 [CBK307145] | 100
25 | CCNC(=O)N1CCC(Oc2cc(C)ccc2F)(C(=O)O)CC1 [CBK307147] | 87.9
26 | CCn1cc(C(=O)NN)c(=O)c2cc(F)c(N3CCSCC3)cc21 [CBK307148] | 98.8
27 | Cc1nnc(N2CCn3nc(C(O)Cc4ccccc4)cc3C2)s1 (stereo not drawn) [CBK307152] | 86
28 | Cc1cc(-c2cn3cc(C(=O)N(C)CC(C)O)nc3c(=O)n2C)c(C)o1 (stereo not drawn) [CBK307154] | 88
29 | COCCn1cnnc1CN(C)C(=O)NC(C)c1nc2ccccc2[nH]1 (stereo not drawn) [CBK307155] | 99.6
30 | CNc1nc(NCCc2cnc(=O)n(C)c2O)cc(C2CCOC2)n1 (stereo not drawn) [CBK307156] | 105
31 | O=C(CCc1cn2ccccc2n1)NCc1cc2n(n1)CCCNC2 [CBK307157] | 88.8
32 | Cc1cc(=O)[nH]c(C)c1C(=O)N1CCC(N2CCCC(CO)C2)CC1 (stereo not drawn) [CBK307158] | 103
33 | COCC1(C(=O)N2CC(=O)N(c3ccccc3C#N)CC2C)CCC1 (stereo not drawn) [CBK307159] | 89
34 | Cc1cc(-c2cn3cc(C(=O)NCCN(C)C)nc3c(=O)n2C)c(C)o1 [CBK307160] | 94.3
35 | CCCOCCCn1ccc2nc(OC)c(C#N)cc2c1=O [CBK307162] | 88
36 | Cc1ccc(-n2cccn2)cc1S(=O)(=O)NCCN1CCCCC1CO (stereo not drawn) [CBK307163] | 122
37 | CCn1cc(C(=O)N2CCOC(C(=O)O)C2)c(=O)c2ccc(C)nc21 (stereo not drawn) [CBK307165] | 83.5
38 | NC1CC(c2cc(NCCOc3ccccc3Cl)ncn2)C1 (stereo not drawn) [CBK307167] | 73.7
39 | CCc1nc(N)nc(N2CCC3(CCC(CNC(C)=O)O3)CC2)c1C (stereo not drawn) [CBK307168] | 100
40 | CCOc1ccc(Cl)cc1CN(C)C(=O)NC(C)CN1CCOCC1 (stereo not drawn) [CBK307170] | 92.4
41 | CCCc1nnc(NC(=O)CN2CCc3c(c(CO)nn3C)C2)s1 [CBK307172] | 98.4
42 | CCn1ccnc1CN1CCCC(CCc2ccccc2F)C1 (stereo not drawn) [CBK307173] | 99.3

Row | Structure (SMILES) | viability at 28.5 h, 10 µM [%]
43 | Cc1cc(C)n(CCCC(=O)N2CC3(CCNCC3)CC2C(=O)O)n1 (stereo not drawn) [CBK307174] | 89.5
44 | CCCNC(=O)c1nn2c(c1Cl)NC(c1cccs1)CC2C(F)(F)F (stereo not drawn) [CBK307177] | 90.3
45 | COCCNC(=O)c1nn2c(c1Br)NC(c1cccs1)CC2C(F)(F)F (stereo not drawn) [CBK307178] | 84.5
46 | Cc1cc(C(=O)NC(Cc2ccncc2)C2CC(O)C2)c(C)o1 (stereo not drawn) [CBK307181] | 96.5
47 | COc1cc(NC(=O)NCc2cncn2CC(C)C)c2ncccc2c1 [CBK307182] | 52.1
48 | CC(C)CC(NC(=O)Cc1cccc(O)c1)c1nnc2n1CCNCC2 (stereo not drawn) [CBK307183] | 98.3
49 | CCn1c(C2CCN(C(=O)c3cc(C(F)(F)F)n[nH]3)CC2)nn(C)c1=O [CBK307184] | 88.9
50 | Cc1cc(C)n(CC(=O)NCCCn2ccnc2C(C)C)c(=O)n1 [CBK307185] | 92.4
51 | Cc1cc(F)ccc1OC1(C(=O)O)CCN(Cc2ccoc2)CC1 [CBK307187] | 104
52 | Cc1cccc(C(=O)NC(CC(C)C)c2nnc3n2CCNCC3)c1O (stereo not drawn) [CBK307191] | 99.6
53 | Clc1ccc(OCCCn2ccnc2)c(CN2CCSCC2)c1 [CBK307194] | 104
54 | Cc1nn(C)c(C)c1CCC(=O)NCC1CN(c2ccccc2)CCO1 (stereo not drawn) [CBK307199] | 103
55 | COc1ccccc1CC(=O)N[C@@H]1CCN(Cc2cccnc2)C[C@H]1O [CBK307200] | 100
56 | Cn1ccnc1CN1C[C@@H]2CN(C(=O)C3CCCC3)C[C@]2(C(=O)O)C1 [CBK307201] | 102
57 | CCCn1ccnc1CN1CCCC(CC2CC2)(C(=O)O)C1 (stereo not drawn) [CBK307205] | 100
58 | CCCCSc1nc(N)cc(N2CCCC(C(=O)N3CCOCC3)C2)n1 (stereo not drawn) [CBK307210] | 75.2
59 | COCCn1ccnc1C1CCCN(C(=O)COc2ccccc2Cl)C1 (stereo not drawn) [CBK307211] | 90.2
60 | CCn1cc(NC(=O)NC2CCN(c3ncccc3C#N)CC2)c(C)n1 [CBK307213] | 93.1
61 | Cc1nc(C(=O)N2CCn3nc(C(O)Cc4ccccc4)cc3C2)cs1 (stereo not drawn) [CBK307214] | 98.5
62 | CN(C)c1ccc(-c2ncnn2CC(F)(F)F)cn1 [CBK307215] | 88
63 | CCCS(=O)(=O)N1CCCC(Cc2ccc(F)cc2F)(C(=O)OCC)C1 (stereo not drawn) [CBK307221] | 85.5

Row | Structure (SMILES) | viability at 28.5 h, 10 µM [%]
64 | CCn1cc(S(=O)(=O)NCc2ccc3[nH]c4c(c3c2)CCCC4)cn1 [CBK307225] | 100
65 | Cc1ccc(OC2(C(=O)N3CCCC3C(F)(F)F)CCNCC2)cc1 (stereo not drawn) [CBK307226] | 82.5
66 | COc1ccccc1-n1nc(-c2ccncc2)nc1C1CCOCC1 [CBK307229] | 95
67 | CCN(CC1CCOCC1)C(=O)Cn1c(C)cc(=O)c2ccccc21 [CBK307230] | 88.7
68 | COc1cccc(C(=O)NCCC(=O)N2CCc3c(nc[nH]c3=O)C2)c1 [CBK307231] | 103
69 | CNc1nc(C)c(C(=O)N2CCCC(COc3ccc(F)cc3)C2)s1 (stereo not drawn) [CBK307234] | 103
70 | COCCc1nc(C2CCC2)n(Cc2ccccc2C)n1 [CBK307238] | 91.8
71 | CCN(CC1CCN(C)C1)C(=O)c1cc(COc2cccc(F)c2)[nH]n1 (stereo not drawn) [CBK307239] | 88.8
72 | COCCNc1nc2c(c(N3CCCC(CO)C3)n1)CCNCC2 (stereo not drawn) [CBK307242] | 111
73 | CCn1ncnc1CN1CCOc2ccc(CO)cc2C1 [CBK307245] | 80.7
74 | COc1nccc(N2CCC3(CC(=O)NC3=O)C2)c1C#N (stereo not drawn) [CBK307246] | 108
75 | CCC(NC(=O)CCc1cccnc1)c1cn2cccnc2n1 (stereo not drawn) [CBK307247] | 81.7
76 | CCC(CNC(=O)c1coc(COc2ccc3sc(C)nc3c2)n1)OC (stereo not drawn) [CBK307248] | 72.3
77 | Cn1c(=O)n(C)c2cc(CNC(=O)CC3COCCN3)ccc21 (stereo not drawn) [CBK307252] | 103
78 | CNC(=O)CCc1ccccc1NC(=O)NCCSc1ncn[nH]1 [CBK307253] | 89.9
79 | CCCn1ccnc1CNc1nc2c(s1)c(C)nn2C [CBK307254] | 84.3
80 | COc1nccc(N2CCC3(CCC(=O)N(CCO)C3)CC2)c1C#N [CBK307255] | 117
81 | CSCC1CCCN(C(=O)c2cc3ncc(CCO)cn3n2)C1 (stereo not drawn) [CBK307256] | 79.6
